In ChEMBL document CHEMBL5154740, “Novel Aurora A and Protein Kinase C (α, β1, β2, and θ) Multitarget Inhibitors: Impact of Selenium Atoms on the Potency and Selectivity” (J Med Chem, 2022):

Experiments:
MDA-MB-231 = test: Cytotoxicity against human MDA-MB-231/M cells assessed as reduction in cell viability incubated for 96 hrs by MTT assay; type: functional, cell-based; settings: MDA-MB-231, 96 h
[1] = molecular target: Serine/threonine-protein kinase mTOR (Homo sapiens) (UniProt P42345); test: Inhibition of FRAP1 (unknown origin) at 50 nM by Z'LYTE screening method relative to control
4T1 = test: Cytotoxicity against mouse 4T1 cells assessed as reduction in cell viability incubated for 96 hrs by MTT assay; type: functional, cell-based; settings: 4T1, 96 h
[2] = molecular target: Protein kinase C theta type (Homo sapiens, UniProt Q04759); test: Inhibition of PKCtheta (unknown origin) at 50 nM by Z'LYTE screening method relative to control
[3] = molecular target: Serine/threonine-protein kinase PAK 1 (Homo sapiens) (UniProt Q13153); test: Inhibition of PAK1 (unknown origin) at 50 nM by Z'LYTE screening method relative to control
Sequence of Serine/threonine-protein kinase PAK 1 (Homo sapiens) (Q13153 whole entry): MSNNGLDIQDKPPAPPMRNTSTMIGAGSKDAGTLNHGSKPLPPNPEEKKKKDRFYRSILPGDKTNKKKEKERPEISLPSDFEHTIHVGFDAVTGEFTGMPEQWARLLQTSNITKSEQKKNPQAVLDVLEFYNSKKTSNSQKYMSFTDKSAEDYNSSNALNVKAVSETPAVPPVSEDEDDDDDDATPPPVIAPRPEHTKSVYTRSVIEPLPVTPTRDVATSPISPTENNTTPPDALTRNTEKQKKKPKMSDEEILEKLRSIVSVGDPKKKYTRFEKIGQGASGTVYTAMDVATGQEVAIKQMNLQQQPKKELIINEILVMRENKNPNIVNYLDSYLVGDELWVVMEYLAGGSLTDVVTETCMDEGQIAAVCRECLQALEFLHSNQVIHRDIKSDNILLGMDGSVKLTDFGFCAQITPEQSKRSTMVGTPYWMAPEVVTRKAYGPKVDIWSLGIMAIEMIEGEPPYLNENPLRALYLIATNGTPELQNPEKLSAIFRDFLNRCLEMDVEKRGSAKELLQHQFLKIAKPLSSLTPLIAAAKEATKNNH

[4] = molecular target: Protein kinase C eta type (Homo sapiens, UniProt P24723); test: Inhibition of PKCeta (unknown origin) at 50 nM by Z'LYTE screening method relative to control
[5] = molecular target: Tyrosine-protein kinase Yes (Homo sapiens) (UniProt P07947); test: Inhibition of YES1 (unknown origin) at 50 nM by Z'LYTE screening method relative to control
Sequence of Tyrosine-protein kinase Yes (Homo sapiens) (P07947 2-543 limits assumed): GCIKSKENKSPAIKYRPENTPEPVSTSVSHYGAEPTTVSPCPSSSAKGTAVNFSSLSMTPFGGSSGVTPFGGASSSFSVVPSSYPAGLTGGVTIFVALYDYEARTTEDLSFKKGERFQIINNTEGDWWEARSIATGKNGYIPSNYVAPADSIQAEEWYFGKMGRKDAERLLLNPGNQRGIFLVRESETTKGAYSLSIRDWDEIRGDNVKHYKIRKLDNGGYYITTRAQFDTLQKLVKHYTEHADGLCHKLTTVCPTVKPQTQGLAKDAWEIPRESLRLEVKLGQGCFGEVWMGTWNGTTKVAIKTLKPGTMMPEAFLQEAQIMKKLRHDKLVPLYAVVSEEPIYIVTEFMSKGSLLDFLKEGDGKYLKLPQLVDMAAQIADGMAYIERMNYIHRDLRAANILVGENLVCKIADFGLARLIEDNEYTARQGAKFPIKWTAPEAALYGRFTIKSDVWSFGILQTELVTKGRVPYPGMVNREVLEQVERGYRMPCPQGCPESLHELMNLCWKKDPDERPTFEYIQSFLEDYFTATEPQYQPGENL

[6] = molecular target: Fibroblast growth factor receptor 1 (Homo sapiens) (UniProt P11362); test: Inhibition of FGFR1 (unknown origin) at 50 nM by Z'LYTE screening method relative to control
[7] = molecular target: Proto-oncogene tyrosine-protein kinase receptor Ret (Homo sapiens) (UniProt P07949); test: Inhibition of RET (unknown origin) at 50 nM by Z'LYTE screening method relative to control
[8] = molecular target: Receptor tyrosine-protein kinase erbB-2 (Homo sapiens) (UniProt P04626); test: Inhibition of ERBB2 (unknown origin) at 50 nM by Z'LYTE screening method relative to control
Sequence of Receptor tyrosine-protein kinase erbB-2 (Homo sapiens) (P04626 whole entry): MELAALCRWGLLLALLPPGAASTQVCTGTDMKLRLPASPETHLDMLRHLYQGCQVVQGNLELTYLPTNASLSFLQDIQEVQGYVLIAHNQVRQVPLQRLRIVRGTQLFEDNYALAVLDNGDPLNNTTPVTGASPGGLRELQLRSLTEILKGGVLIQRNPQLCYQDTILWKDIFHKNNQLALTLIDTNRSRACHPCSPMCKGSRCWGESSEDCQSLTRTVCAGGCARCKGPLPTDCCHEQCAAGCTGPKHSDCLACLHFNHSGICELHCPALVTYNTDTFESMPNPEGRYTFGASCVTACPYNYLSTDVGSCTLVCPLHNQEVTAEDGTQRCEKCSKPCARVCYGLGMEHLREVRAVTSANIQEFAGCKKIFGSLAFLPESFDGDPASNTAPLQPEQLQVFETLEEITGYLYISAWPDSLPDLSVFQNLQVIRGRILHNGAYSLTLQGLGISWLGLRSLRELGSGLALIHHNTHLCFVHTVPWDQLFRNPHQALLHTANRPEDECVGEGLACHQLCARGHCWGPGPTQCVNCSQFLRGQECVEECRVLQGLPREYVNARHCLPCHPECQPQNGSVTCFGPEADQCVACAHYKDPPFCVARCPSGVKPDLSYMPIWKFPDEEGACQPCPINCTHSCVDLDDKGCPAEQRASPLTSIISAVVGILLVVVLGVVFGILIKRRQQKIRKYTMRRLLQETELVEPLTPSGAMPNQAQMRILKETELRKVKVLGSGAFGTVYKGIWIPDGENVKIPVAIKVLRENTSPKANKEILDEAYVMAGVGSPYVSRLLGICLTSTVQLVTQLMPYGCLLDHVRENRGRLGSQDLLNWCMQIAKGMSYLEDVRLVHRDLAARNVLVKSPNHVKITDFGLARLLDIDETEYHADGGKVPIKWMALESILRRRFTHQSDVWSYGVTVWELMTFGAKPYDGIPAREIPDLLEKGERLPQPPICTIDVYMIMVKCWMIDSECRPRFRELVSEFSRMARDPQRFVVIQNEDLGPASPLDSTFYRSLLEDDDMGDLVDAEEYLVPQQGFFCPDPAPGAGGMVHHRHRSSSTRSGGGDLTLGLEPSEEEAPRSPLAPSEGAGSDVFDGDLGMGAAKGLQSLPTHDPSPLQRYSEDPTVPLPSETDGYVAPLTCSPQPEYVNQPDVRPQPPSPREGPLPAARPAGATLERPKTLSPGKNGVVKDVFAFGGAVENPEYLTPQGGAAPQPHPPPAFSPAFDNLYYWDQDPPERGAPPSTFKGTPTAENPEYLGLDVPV

[9] = molecular target: Protein kinase C delta type (Homo sapiens) (UniProt Q05655); test: Inhibition of PKCdelta (unknown origin) at 50 nM by Z'LYTE screening method relative to control
Sequence of Protein kinase C delta type (Homo sapiens) (Q05655 whole entry, looked up): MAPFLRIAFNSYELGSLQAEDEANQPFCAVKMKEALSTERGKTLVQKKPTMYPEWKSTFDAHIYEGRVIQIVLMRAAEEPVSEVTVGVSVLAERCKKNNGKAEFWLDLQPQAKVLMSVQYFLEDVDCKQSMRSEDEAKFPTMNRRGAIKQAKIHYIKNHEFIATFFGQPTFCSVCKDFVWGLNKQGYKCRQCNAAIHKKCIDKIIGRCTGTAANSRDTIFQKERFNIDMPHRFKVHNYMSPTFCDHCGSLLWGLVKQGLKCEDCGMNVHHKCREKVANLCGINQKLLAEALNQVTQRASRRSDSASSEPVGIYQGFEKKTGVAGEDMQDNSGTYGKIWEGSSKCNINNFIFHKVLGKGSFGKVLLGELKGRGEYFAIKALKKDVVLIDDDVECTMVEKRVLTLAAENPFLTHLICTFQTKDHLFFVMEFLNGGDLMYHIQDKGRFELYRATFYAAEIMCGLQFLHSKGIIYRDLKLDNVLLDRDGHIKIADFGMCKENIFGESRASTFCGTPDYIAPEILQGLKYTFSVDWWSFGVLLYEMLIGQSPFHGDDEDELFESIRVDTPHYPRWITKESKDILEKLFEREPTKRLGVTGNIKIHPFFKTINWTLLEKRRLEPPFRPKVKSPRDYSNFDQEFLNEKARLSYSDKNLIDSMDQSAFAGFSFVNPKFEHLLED

[10] = molecular target: Protein kinase C beta type (Homo sapiens) (UniProt P05771); test: Inhibition of PKCbeta2 (unknown origin) at 50 nM by Z'LYTE screening method relative to control
[11] = molecular target: T1, Protein kinase C epsilon type (Homo sapiens) (UniProt Q02156); test: Inhibition of PKCepsilon (unknown origin) at 50 nM by Z'LYTE screening method relative to control
T1 sequence (whole entry): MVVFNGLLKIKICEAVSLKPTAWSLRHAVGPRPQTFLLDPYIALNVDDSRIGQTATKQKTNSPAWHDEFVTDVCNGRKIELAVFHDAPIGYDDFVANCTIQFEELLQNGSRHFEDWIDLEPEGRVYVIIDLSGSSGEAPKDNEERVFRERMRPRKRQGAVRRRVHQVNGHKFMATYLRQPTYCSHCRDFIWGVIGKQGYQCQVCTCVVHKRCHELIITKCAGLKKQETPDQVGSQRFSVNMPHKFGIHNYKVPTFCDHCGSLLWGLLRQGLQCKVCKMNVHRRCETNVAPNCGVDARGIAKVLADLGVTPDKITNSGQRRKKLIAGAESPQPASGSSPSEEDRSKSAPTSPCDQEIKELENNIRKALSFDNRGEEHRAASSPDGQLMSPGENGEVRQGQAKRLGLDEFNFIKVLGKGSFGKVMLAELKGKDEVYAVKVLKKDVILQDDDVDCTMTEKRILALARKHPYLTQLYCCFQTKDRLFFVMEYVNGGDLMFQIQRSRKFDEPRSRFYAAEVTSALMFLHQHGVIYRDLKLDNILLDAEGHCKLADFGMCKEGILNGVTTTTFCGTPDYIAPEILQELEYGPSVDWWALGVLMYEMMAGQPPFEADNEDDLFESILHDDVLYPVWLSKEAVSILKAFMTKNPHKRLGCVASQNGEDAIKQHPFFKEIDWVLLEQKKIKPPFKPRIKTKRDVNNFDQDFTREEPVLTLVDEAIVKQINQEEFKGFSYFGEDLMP

[12] = molecular target: Mitogen-activated protein kinase 11 (Homo sapiens) (UniProt Q15759); test: Inhibition of MAPK11 (unknown origin) at 50 nM by Z'LYTE screening method relative to control
[13] = molecular target: Dual specificity mitogen-activated protein kinase kinase 1 (Homo sapiens) (UniProt Q02750); test: Inhibition of MAP2K1 (unknown origin) at 50 nM by Z'LYTE screening method relative to control
[14] = molecular target: Hepatocyte growth factor receptor (Homo sapiens) (UniProt P08581); test: Inhibition of cMet (unknown origin) at 50 nM by Z'LYTE screening method relative to control
[15] = molecular target: CDK1/Cyclin A (Homo sapiens) (UniProt P06493+P20248); test: Inhibition of CDK1/CyclinA (unknown origin) at 50 nM by Z'LYTE screening method relative to control; type: protein-complex assay
[16] = molecular target: Aurora kinase B (Homo sapiens) (UniProt Q96GD4); test: Inhibition of AURB (unknown origin) at 50 nM by Z'LYTE screening method relative to control
Sequence of Aurora kinase B (Homo sapiens) (Q96GD4 whole entry): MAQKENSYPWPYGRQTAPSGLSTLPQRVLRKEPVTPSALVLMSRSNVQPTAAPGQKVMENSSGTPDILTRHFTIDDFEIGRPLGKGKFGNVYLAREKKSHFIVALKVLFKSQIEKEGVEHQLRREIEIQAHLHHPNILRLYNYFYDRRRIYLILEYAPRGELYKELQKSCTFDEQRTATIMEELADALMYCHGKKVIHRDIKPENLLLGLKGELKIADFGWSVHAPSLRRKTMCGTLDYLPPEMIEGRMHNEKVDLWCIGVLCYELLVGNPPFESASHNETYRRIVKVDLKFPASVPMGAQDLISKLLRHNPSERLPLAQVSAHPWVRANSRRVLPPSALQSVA

[17] = molecular target: Tyrosine-protein kinase SYK (Homo sapiens) (UniProt P43405); test: Inhibition of SYK (unknown origin) at 50 nM by Z'LYTE screening method relative to control
[18] = molecular target: Protein kinase C alpha type (Homo sapiens) (UniProt P17252); test: Inhibition of PKCalpha (unknown origin) at 50 nM by Z'LYTE screening method relative to control
[19] = molecular target: PI3-kinase p110-alpha/p85-alpha (Homo sapiens) (UniProt P27986+P42336); test: Inhibition of p110alpha/p85alpha (unknown origin) at 50 nM by Z'LYTE screening method relative to control; type: protein-complex assay
[20] = molecular target: RAC-alpha serine/threonine-protein kinase (Homo sapiens) (UniProt P31749); test: Inhibition of AKT1 (unknown origin) at 50 nM by Z'LYTE screening method relative to control
Sequence of RAC-alpha serine/threonine-protein kinase (Homo sapiens) (P31749 whole entry): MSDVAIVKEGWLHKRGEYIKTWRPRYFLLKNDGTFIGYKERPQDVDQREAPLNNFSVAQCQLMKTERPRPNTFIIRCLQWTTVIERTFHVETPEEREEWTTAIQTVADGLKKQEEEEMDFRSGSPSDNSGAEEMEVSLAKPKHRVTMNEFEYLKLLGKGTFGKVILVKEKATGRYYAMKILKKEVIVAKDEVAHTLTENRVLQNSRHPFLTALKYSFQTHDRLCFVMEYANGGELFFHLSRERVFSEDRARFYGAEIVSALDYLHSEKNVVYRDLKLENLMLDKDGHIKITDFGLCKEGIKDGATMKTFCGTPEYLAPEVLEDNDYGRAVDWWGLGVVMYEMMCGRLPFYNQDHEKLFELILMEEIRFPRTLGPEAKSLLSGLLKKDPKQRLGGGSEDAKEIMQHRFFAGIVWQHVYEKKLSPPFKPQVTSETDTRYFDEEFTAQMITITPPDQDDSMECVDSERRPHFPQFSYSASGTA

[21] = molecular target: ALK tyrosine kinase receptor (Homo sapiens) (UniProt Q9UM73); test: Inhibition of ALK (unknown origin) at 50 nM by Z'LYTE screening method relative to control
Homo sapiens = species on record: Homo sapiens; test: Inhibition of CDK1/Cyclin B (unknown origin) at 50 nM by Z'LYTE screening method relative to control
[22] = molecular target: Proto-oncogene tyrosine-protein kinase Src (Homo sapiens) (UniProt P12931); test: Inhibition of SRC (unknown origin) at 50 nM by Z'LYTE screening method relative to control
Sequence of Proto-oncogene tyrosine-protein kinase Src (Homo sapiens) (P12931 2-536 limits assumed): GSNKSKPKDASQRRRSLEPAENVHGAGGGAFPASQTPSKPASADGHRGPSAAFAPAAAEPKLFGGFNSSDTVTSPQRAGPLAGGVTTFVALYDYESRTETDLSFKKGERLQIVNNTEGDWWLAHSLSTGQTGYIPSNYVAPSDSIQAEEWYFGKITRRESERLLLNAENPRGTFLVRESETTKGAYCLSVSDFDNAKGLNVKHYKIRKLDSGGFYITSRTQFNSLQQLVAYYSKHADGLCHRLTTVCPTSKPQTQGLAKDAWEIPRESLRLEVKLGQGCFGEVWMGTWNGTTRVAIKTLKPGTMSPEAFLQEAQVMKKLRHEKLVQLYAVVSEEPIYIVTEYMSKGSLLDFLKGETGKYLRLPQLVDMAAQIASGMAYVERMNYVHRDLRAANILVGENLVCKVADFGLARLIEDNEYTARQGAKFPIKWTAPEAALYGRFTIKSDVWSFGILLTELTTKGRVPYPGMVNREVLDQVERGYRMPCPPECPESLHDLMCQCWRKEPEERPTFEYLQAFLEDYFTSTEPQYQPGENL

[23] = molecular target: Protein kinase C beta type (Homo sapiens) (UniProt P05771); test: Inhibition of PKCbeta1 (unknown origin) at 50 nM by Z'LYTE screening method relative to control
[24] = molecular target: Mitogen-activated protein kinase 1 (Homo sapiens) (UniProt P28482); test: Inhibition of MAPK1 (unknown origin) at 50 nM by Z'LYTE screening method relative to control

O=C1c2ccccc2CN1c1nc(NC2CCCC2)c2nc[nH]c2n1
IC50 (MDA-MB-231): 24.7 µM | inhibition [1]: 2% | IC50 (4T1): 16.7 µM | inhibition [2]: 7% | inhibition [3]: 0% | inhibition [4]: 4% | inhibition [5]: 1% | inhibition [6]: 0% | inhibition [7]: 2% | inhibition [8]: 0% | inhibition [9]: 0% | inhibition [10]: 9% | inhibition [11]: 0% | inhibition [12]: 0% | inhibition [13]: 1% | inhibition [14]: 0% | inhibition [15]: 0% | inhibition [16]: 1% | inhibition [17]: 1% | inhibition [18]: 0% | inhibition [19]: 0% | inhibition [20]: 1% | inhibition [21]: 2% | inhibition (Homo sapiens): 0% | inhibition [22]: 0% | inhibition [23]: 0% | inhibition [24]: 0%

CCCNc1nc(-n2[se]c3ccccc3c2=O)nc2[nH]cnc12
IC50 (MDA-MB-231): 23.2 µM | inhibition [1]: 0% | IC50 (4T1): 11.3 µM | inhibition [2]: 25% | inhibition [3]: 1% | inhibition [4]: 0% | inhibition [5]: 3% | inhibition [6]: 0% | inhibition [7]: 0% | inhibition [8]: 0% | inhibition [9]: 0% | inhibition [10]: 95% | inhibition [11]: 6% | inhibition [12]: 4% | inhibition [13]: 2% | inhibition [14]: 1% | inhibition [15]: 2% | inhibition [16]: 2% | inhibition [17]: 2% | inhibition [18]: 17% | inhibition [19]: 0% | inhibition [20]: 2% | inhibition [21]: 1% | inhibition (Homo sapiens): 1% | inhibition [22]: 2% | inhibition [23]: 2% | inhibition [24]: 1%

O=c1c2ccccc2[se]n1-c1nc(N[C@H]2CC[Se]C2)c2nc[nH]c2n1
IC50 (MDA-MB-231): 1.2 µM | inhibition [1]: 0% | IC50 (4T1): 0.8 µM | inhibition [2]: 98% | inhibition [3]: 0% | inhibition [4]: 6% | inhibition [5]: 10% | inhibition [6]: 0% | inhibition [7]: 7% | inhibition [8]: 0% | inhibition [9]: 0% | inhibition [10]: 8% | inhibition [11]: 5% | inhibition [12]: 9% | inhibition [13]: 10% | inhibition [14]: 0% | inhibition [15]: 0% | inhibition [16]: 0% | inhibition [17]: 0% | inhibition [18]: 100% | inhibition [19]: 0% | inhibition [20]: 0% | inhibition [21]: 0% | inhibition (Homo sapiens): 0% | inhibition [22]: 0% | inhibition [23]: 95% | inhibition [24]: 9%
